Columns and labels:
[1] = target: HLA-A*02:01 (Homo sapiens, UniProt P04439, D140Y/D185E/D98H/E176V/E277Q/G131W/G231S/I119V/I121R/I166T/I218V/L300P/L318F/N151K/N90K/P208A/P217A/Q86G/Q94H/R138H/R169H/T345S); experiment: MHC binding assay (UV-ligand exchange, beta2m ELISA); settings: binding to HLA-A*02:01, β2m ELISA
Procedure, shortened: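 Peptide-MHC complexes made by UV-ligand exchange of a UV-cleavable peptide for test peptide; exchange yield measured by β2m ELISA on streptavidin-coated plates with samples diluted 100-fold, HRP anti-β2m and TMB read at 450 nm. Refolded HLA-A*02:01/MLA-001 monomers (15-500 ng/ml) served as standards.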

[2] = tested on: CD8+ T cells; experiment: In vitro immunogenicity: T-cell priming with aAPCs loaded with peptide/MHC complexes and anti-CD28, pMHC multimer readout; assay type: cell-based, human; settings: for Wells positive [%]: in vitro immunogenicity, HLA-A*02 restricted peptides, percentage of positive wells and donors (among evaluable); for in vitro immunogenicity: donors: positive donors; for in vitro immunogenicity: donors / in vitro immunogenicity: wells: CD8+ T cells of healthy HLA-A*02 donors, three stimulation cycles, multimer staining; for in vitro immunogenicity: wells: positive wells
From the text: In order to obtain information regarding the immunogenicity of the TUMAPs of the present invention, the inventors performed investigations using an in vitro T-cell priming assay based on repeated stimulations of CD8+ T cells with artificial antigen presenting cells (aAPCs) loaded with peptide/MHC complexes and anti-CD28 antibody.
In order to perform in vitro stimulations by artificial antigen presenting cells loaded with peptide-MHC complex (pMHC) and anti-CD28 antibody, the inventors first isolated CD8+ T cells from fresh HLA-A*02 leukapheresis products via positive selection using CD8 microbeads (Miltenyi Biotec, Bergisch-Gladbach, Germany) of healthy donors obtained from the University clinics Mannheim, Germany, after informed consent. PBMCs and isolated CD8+ lymphocytes were incubated in T-cell medium (TCM) until use consisting of RPMI-Glutamax (Invitrogen, Karlsruhe, Germany) supplemented with 10% heat inactivated human AB serum (PAN-Biotech, Aidenbach, Germany), 100 U/ml Penicillin/100 μg/ml Streptomycin (Cambrex, Cologne, Germany), 1 mM sodium pyruvate (CC Pro, Oberdorla, Germany), 20 μg/ml Gentamycin (Cambrex). 2.5 ng/ml IL-7 (PromoCell, Heidelberg, Germany) and 10 U/ml IL-2 (Novartis Pharma, Nürnberg, Germany) were also added to the TCM at this step. Generation of pMHC/anti-CD28 coated beads, T-cell stimulations and readout was performed in a highly defined in vitro system using four different pMHC molecules per stimulation condition and 8 different pMHC molecules per readout condition.
The purified co-stimulatory mouse IgG2a anti human CD28 Ab 9.3 (Jung et al., 1987) was chemically biotinylated using Sulfo-N-hydroxysuccinimidobiotin as recommended by the manufacturer (Perbio, Bonn, Germany). Beads used were 5.6 μm diameter streptavidin coated polystyrene particles (Bangs Laboratories, Illinois, USA).
pMHC used for positive and negative control stimulations were A*0201/MLA-001 (peptide […] (SEQ ID NO. 289) from modified Melan-A/MART-1) and A*0201/DDX5-001 ([…] from DDX5, SEQ ID NO. 290), respectively.
800,000 beads/200 μl were coated in 96-well plates in the presence of 4×12.5 ng different biotin-pMHC, washed and 600 ng biotin anti-CD28 were added subsequently in a volume of 200 μl. Stimulations were initiated in 96-well plates by co-incubating 1×10^6 CD8+ T cells with 2×10^5 washed coated beads in 200 μl TCM supplemented with 5 ng/ml IL-12 (PromoCell) for 3 days at 37° C. Half of the medium was then exchanged by fresh TCM supplemented with 80 U/ml IL-2 and incubating was continued for 4 days at 37° C. This stimulation cycle was performed for a total of three times. For the pMHC multimer readout using 8 different pMHC molecules per condition, a two-dimensional combinatorial coding approach was used as previously described (Andersen et al., 2012) with minor modifications encompassing coupling to 5 different fluorochromes. Finally, multimeric analyses were performed by staining the cells with Live/dead near IR dye (Invitrogen, Karlsruhe, Germany), CD8-FITC antibody clone SK1 (BD, Heidelberg, Germany) and fluorescent pMHC multimers. For analysis, a BD LSRII SORP cytometer equipped with appropriate lasers and filters was used. Peptide specific cells were calculated as percentage of total CD8+ cells. Evaluation of multimeric analysis was done using the FlowJo software (Tree Star, Oreg., USA). In vitro priming of specific multimer+CD8+ lymphocytes was detected by comparing to negative control stimulations.

[3] = tested on: advanced non-resectable HCC; settings: advanced non-resectable HCC patients (Chapiro et al., 2014; Llovet et al., 2008); cited from earlier work

Peptide exchange (MHC class I binding score, peptide exchange yield) [1] | Compound | Wells positive [%] [2] | in vitro immunogenicity: donors [2] | in vitro immunogenicity: wells [2] | increase of survival [3]
+++ (≥50 = +++) | 233 (SLFESLEYL; listed as Homo sapiens) [compound 233] | + (<20% = +) |  |  | 
+++ (≥50 = +++) | 236 (KMSELQTYV; listed as Homo sapiens) [compound 236] | + (<20% = +) |  |  | 
+++ (≥50 = +++) | 242 (KLQEEIPVL; listed as Homo sapiens) [compound 242] | + (<20% = +) |  |  | 
+++ (≥50 = +++) | 246 (ALAGIVTNV; listed as Homo sapiens) [compound 246] | + (<20% = +) |  |  | 
++ (≥20% = ++) | 254 (ALGDKFLLRV; listed as Homo sapiens) [compound 254] | + (<20% = +) |  |  | 
+++ (≥50 = +++) | 255 (FLMKNSDLYGA; listed as Homo sapiens) [compound 255] | + (<20% = +) |  |  | 
+++ (≥50 = +++) | 257 (KLIDHQGLYL; listed as Homo sapiens) [compound 257] | + (<20% = +) |  |  | 
+++ (≥50 = +++) | 260 (ALNESLVEC; listed as Homo sapiens) [compound 260] | + (<20% = +) |  |  | 
+++ (≥50 = +++) | 263 (SIIEYLPTL; listed as Homo sapiens) [compound 263] | + (<20% = +) |  |  | 
++ (≥20% = ++) | 264 (TLHDQVHLL; listed as Homo sapiens) [compound 264] | + (<20% = +) |  |  | 
+++ (≥50 = +++) | 267 (YLLDMPLWYL; listed as Homo sapiens) [compound 267] | + (<20% = +) |  |  | 

The remaining lines, values behind:

Compound | Peptide exchange (MHC class I binding score, peptide exchange yield) [1] | Wells positive [%] [2] | in vitro immunogenicity: donors [2] | in vitro immunogenicity: wells [2] | increase of survival [3]
4 (VLFGELPAL; listed as Homo sapiens) [compound 4] | +++ (≥50 = +++) | + (<20% = +) |  |  | 
9 (SLITGQDLLSV; listed as Homo sapiens) [compound 9] | +++ (≥50 = +++) | + (<20% = +) |  |  | 
14 (YTFSGDVQL; listed as Homo sapiens) [compound 14] | +++ (≥50 = +++) | + (<20% = +) |  |  | 
17 (GLLPSAESIKL; listed as Homo sapiens) [compound 17] | ++++ (≥75% = ++++) | + (<20% = +) |  |  | 
18 (KTASINQNV; listed as Homo sapiens) [compound 18] | ++ (≥20% = ++) | +++ (50%-69% = +++) |  |  | 
27 (GLLGKVTSV; listed as Homo sapiens) [compound 27] | +++ (≥50 = +++) | + (<20% = +) |  |  | 
29 (KMISAIPTL; listed as Homo sapiens) [compound 29] | ++ (≥20% = ++) | + (<20% = +) |  |  | 
34 (TLNTLDINL; listed as Homo sapiens) [compound 34] | +++ (≥50 = +++) | ++++ (>=70% = ++++) |  |  | 
35 (VIIKGLEEI; listed as Homo sapiens) [compound 35] | ++ (≥20% = ++) | + (<20% = +) |  |  | 
39 (YLEDGFAYV; listed as Homo sapiens) [compound 39] | +++ (≥50 = +++) | ++++ (>=70% = ++++) |  |  | 
50 (ILLSVLHQL; listed as Homo sapiens) [compound 50] | +++ (≥50 = +++) | + (<20% = +) |  |  | 
66 (AMFPDTIPRV; listed as Homo sapiens) [compound 66] | ++ (≥20% = ++) | + (<20% = +) |  |  | 
77 (ALYGNVQQV; listed as Homo sapiens) [compound 77] | +++ (≥50 = +++) | + (<20% = +) |  |  | 
82 (ILAEEPIYIRV; listed as Homo sapiens) [compound 82] | +++ (≥50 = +++) | +++ (50%-69% = +++) |  |  | 
89 (SLAETIFIV; listed as Homo sapiens) [compound 89] | +++ (≥50 = +++) | + (<20% = +) |  |  | 
97 (KLFEKSTGL; listed as Homo sapiens) [compound 97] | +++ (≥50 = +++) | + (<20% = +) |  |  | 
101 (SLLEVNEASSV; listed as Homo sapiens) [compound 101] | +++ (≥50 = +++) | + (<20% = +) |  |  | 
102 (GLYPVTLVGV; listed as Homo sapiens) [compound 102] | +++ (≥50 = +++) | + (<20% = +) |  |  | 
121 (ALYVQAPTV; listed as Homo sapiens) [compound 121] | ++ (≥20% = ++) | + (<20% = +) |  |  | 
157 (ILQDGQFLV; listed as Homo sapiens) [compound 157] | ++ (≥20% = ++) | + (<20% = +) |  |  | 
183 (ALSYILPYL; listed as Homo sapiens) [compound 183] | +++ (≥50 = +++) | +++ (50%-69% = +++) |  |  | 
203 (FLFVDPELV; listed as Homo sapiens) [compound 203] | ++ (≥20% = ++) | +++ (50%-69% = +++) |  |  | 
287 (KIQEILTQV; listed as Homo sapiens) [compound 287] |  |  | +++ (50%-69% =+++) | + (<20% = +) | 
288 (SLYKGLLSV; listed as Homo sapiens) [compound 288] |  |  | ++++ (>= 70% = ++++) | ++ (21%-49% = ++) | 
CNC(=O)c1cc(Oc2ccc(NC(=O)Nc3ccc(Cl)c(C(F)(F)F)c3)cc2)ccn1 [Sorafenib] |  |  |  |  | about 3 months

Source: patent US10081665B2, “Peptides and combination of peptides for use in immunotherapy against various tumors” (immatics biotechnologies GmbH, priority 2015, dated 2018)
